Measured values from patent publication US11427548B2 (Arvinas Operations, Inc., priority 2015, dated 2022).
Like-named read-outs stand apart in the source and are kept apart here.

How the values were obtained:
Androgen Receptor [1] = molecular target: T1, Androgen Receptor (Homo sapiens, UniProt P10275); experiment: Androgen Receptor ELISA assay (PathScan AR ELISA) in VCaP cells: AR degradation, Dmax and DC50; assay type: cell-based
T1 construct: endogenous in cells; host or cells: VCaP cells
T1 sequence (P10275 1-920): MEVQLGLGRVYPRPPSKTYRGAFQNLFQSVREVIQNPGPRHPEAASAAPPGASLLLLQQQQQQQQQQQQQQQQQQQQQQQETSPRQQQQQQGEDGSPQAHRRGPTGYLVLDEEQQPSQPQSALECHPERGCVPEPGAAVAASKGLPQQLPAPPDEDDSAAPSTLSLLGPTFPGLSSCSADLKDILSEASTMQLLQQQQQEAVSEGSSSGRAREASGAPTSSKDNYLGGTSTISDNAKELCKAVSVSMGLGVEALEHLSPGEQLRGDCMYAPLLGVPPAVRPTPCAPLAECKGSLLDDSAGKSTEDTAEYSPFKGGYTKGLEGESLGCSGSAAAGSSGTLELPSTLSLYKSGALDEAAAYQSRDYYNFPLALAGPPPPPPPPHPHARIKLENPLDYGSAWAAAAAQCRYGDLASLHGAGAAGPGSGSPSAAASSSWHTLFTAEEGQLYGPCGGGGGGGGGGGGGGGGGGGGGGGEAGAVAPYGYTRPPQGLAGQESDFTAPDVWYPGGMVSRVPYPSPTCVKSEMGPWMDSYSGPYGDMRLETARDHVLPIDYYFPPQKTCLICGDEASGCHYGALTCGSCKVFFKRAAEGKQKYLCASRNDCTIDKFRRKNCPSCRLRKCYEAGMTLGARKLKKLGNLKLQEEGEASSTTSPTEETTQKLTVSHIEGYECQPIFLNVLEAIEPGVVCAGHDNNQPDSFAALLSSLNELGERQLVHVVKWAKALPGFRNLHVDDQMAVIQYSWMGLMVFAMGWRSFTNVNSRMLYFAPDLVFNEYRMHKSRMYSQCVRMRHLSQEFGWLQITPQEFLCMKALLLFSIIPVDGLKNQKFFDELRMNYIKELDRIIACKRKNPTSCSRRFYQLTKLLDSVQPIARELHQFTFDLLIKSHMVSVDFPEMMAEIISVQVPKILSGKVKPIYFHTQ
Summary of the method: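 VCaP cells, 30,000/well, grown ≥3 days in phenol red-free RPMI with 5% charcoal-stripped FBS; compound added in 0.1% DMSO with 0.1 nM R1881, 7 half-log doses, 24 h. Lysate AR quantified by PathScan sandwich ELISA, HRP/TMB read at 450 nm, giving DC50 and Dmax.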

Androgen Receptor [2] = molecular target: T2, Androgen Receptor (Homo sapiens, UniProt P10275+P40337, T878A); experiment: Androgen Receptor ELISA assay (PathScan AR ELISA) in LNCaP cells: AR degradation, Dmax and DC50; assay type: cell-based; conditions: for DC50: concentration that caused 50% Androgen Receptor degradation; for Dmax: highest percentage of Androgen Receptor degradation observed
T2 construct: Compounds have been evaluated in this assay in LNCaP and/or VCaP cells utilizing similar protocols; endogenous in cells; host or cells: LNCaP cells

[3] = read-out: VCaP DC50; concentration that caused 50% Androgen Receptor degradation, VCaP cells
[4] = VCaP, highest percentage of Androgen Receptor degradation observed, VCaP cells; read-out: VCaP Dmax (%)
[5] = concentration that caused 50% Androgen Receptor degradation, VCaP cells; read-out: VCaP DC50

T2 sequence (P10275 whole entry T878A): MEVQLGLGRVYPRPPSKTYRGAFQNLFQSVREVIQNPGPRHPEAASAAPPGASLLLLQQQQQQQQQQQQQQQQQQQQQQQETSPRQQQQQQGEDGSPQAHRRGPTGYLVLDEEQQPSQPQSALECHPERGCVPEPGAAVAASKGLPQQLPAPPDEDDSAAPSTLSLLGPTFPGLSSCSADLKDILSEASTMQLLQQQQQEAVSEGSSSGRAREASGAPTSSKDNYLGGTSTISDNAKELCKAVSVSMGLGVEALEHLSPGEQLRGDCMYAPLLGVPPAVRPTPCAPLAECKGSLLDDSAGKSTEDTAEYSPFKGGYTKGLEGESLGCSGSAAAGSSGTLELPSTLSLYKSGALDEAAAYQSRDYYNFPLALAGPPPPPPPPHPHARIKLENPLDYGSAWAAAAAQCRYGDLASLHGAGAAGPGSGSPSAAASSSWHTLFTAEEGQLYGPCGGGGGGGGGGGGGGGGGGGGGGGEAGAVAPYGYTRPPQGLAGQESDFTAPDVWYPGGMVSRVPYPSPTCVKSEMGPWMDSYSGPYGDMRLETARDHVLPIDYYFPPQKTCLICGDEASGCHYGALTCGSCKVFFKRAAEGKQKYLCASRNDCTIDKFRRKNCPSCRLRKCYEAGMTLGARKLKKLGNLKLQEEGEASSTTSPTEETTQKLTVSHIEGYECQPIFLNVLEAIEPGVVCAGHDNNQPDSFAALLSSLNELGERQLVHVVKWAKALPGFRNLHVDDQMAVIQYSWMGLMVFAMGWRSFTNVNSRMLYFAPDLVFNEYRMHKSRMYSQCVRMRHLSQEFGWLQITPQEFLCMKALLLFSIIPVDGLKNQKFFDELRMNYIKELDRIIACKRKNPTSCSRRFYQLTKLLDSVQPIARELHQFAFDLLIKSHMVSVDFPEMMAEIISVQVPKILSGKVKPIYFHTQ
T2 sequence (P40337 whole entry): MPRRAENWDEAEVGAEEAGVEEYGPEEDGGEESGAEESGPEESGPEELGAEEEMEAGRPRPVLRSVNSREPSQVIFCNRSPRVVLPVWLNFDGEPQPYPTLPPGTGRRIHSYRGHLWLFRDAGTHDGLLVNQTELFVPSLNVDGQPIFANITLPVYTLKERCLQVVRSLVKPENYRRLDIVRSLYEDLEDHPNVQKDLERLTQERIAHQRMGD
T2 sequence (Q15369 whole entry partner): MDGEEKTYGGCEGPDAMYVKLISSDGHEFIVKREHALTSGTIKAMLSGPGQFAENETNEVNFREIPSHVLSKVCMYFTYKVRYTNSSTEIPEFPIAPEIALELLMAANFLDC
T2 sequence (Q15370 whole entry partner): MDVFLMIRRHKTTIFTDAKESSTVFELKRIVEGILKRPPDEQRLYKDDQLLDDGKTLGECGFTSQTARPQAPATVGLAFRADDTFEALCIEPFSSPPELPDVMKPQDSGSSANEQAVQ

With `Cc1ncsc1-c1ccc(CNC(=O)[C@@H]2C[C@@H](O)CN2C(=O)[C@@H](NC(=O)CO[C@H](C)[C@@H](C)OCCOCCOc2ccc(N3C(=S)N(c4ccc(C#N)c(C(F)(F)F)c4)C(=O)C3(C)C)cc2)C(C)(C)C)cc1` [Example 22, (2S,4R)-1-[(2S)-2-(2-{[(2R,3R)-3-{2-[2-(4-{3-[4-cyano-3-(trifluoromethyl)phenyl]-5,5-dimethyl-4-oxo-2-sulfanylideneimidazolidin-1-yl}phenoxy)ethoxy]ethoxy}butan-2-yl]oxy}acetamido)-3,3-dimethylbutanoyl]-4-hydroxy-N-{[4-(4-methyl-1,3-thiazol-5-yl)phenyl]methyl}pyrrolidine-2-carboxamide] the Dmax (Androgen Receptor [1]; VCaP, read-out: VCaP Dmax (%)) was 26 to 50%, the DC50 (Androgen Receptor [1]; [3]) was 51 to 500 nM and the DC50 (Androgen Receptor [2]) was less than 50 nM. The Dmax (Androgen Receptor [2]) was 51 to 70%.
For `Cc1ncsc1-c1ccc([C@H](C)NC(=O)[C@@H]2C[C@@H](O)CN2C(=O)[C@@H](NC(=O)COCCCCOCCCCOc2ccc(N3C(=S)N(c4ccc(C#N)c(C(F)(F)F)c4)C(=O)C3(C)C)cc2F)C(C)(C)C)cc1` [Example 25, (2S,4R)-1-[(2S)-2-(2-{4-[4-(4-{3-[4-cyano-3-(trifluoromethyl)phenyl]-5,5-dimethyl-4-oxo-2-sulfanylideneimidazolidin-1-yl}-2-fluorophenoxy)butoxy]butoxy}acetamido)-3,3-dimethylbutanoyl]-4-hydroxy-N-[(lS)-1-[4-(4-methyl-1,3-thiazol-5-yl)phenyl]ethyl]pyrrolidine-2-carboxamide], the Dmax (Androgen Receptor [1]; VCaP, read-out: VCaP Dmax (%)) was 51 to 70%, the DC50 (Androgen Receptor [1]; [3]) was less than 50 nM and the DC50 (Androgen Receptor [2]) was less than 50 nM. It also gave a Dmax (Androgen Receptor [2]) greater than 71%.
`Cc1ncsc1-c1ccc(CNC(=O)[C@@H]2C[C@@H](O)CN2C(=O)[C@@H](NC(=O)COCCCOCCCCOc2ccc(N3C(=S)N(c4ccc(C#N)c(C(F)(F)F)c4)C(=O)C3(C)C)cc2F)C(C)(C)C)cc1` [Example 27, (2S,4R)-1-[(2S)-2-(2-{3-[4-(4-{3-[4-cyano-3-(trifluoromethyl)phenyl]-5,5-dimethyl-4-oxo-2-sulfanylideneimidazolidin-1-yl}-2-fluorophenoxy)butoxy]propoxy}acetamido)-3,3-dimethylbutanoyl]-4-hydroxy-N-{[4-(4-methyl-1,3-thiazol-5-yl)phenyl]methyl}pyrrolidine-2-carboxamide] showed a Dmax (Androgen Receptor [1]; VCaP, read-out: VCaP Dmax (%)) greater than 71%, a DC50 (Androgen Receptor [1]; [3]) of less than 50 nM and a DC50 (Androgen Receptor [2]) of less than 50 nM. The Dmax (Androgen Receptor [2]) was greater than 71%.
`Cc1ncsc1-c1ccc(CNC(=O)[C@@H]2C[C@@H](O)CN2C(=O)[C@@H](NC(=O)COCCCOCCCCOc2ccc(N3C(=S)N(c4ccc(C#N)c(C(F)(F)F)c4)C(=O)C3(C)C)cc2)C(C)(C)C)cc1` [Example 28, (2S,4R)-1-[(2S)-2-(2-{3-[4-(4-{3-[4-cyano-3-(trifluoromethyl)phenyl]-5,5-dimethyl-4-oxo-2-sulfanylideneimidazolidin-1-yl}phenoxy)butoxy]propoxy}acetamido)-3,3-dimethylbutanoyl]-4-hydroxy-N-{[4-(4-methyl-1,3-thiazol-5-yl)phenyl]methyl}pyrrolidine-2-carboxamide] was tested, and the Dmax (Androgen Receptor [1]; VCaP, read-out: VCaP Dmax (%)) was 51 to 70%, the DC50 (Androgen Receptor [1]; [3]) was less than 50 nM and the DC50 (Androgen Receptor [2]) was less than 50 nM. For the same compound, the Dmax (Androgen Receptor [2]) was greater than 71%.
`Cc1ncsc1-c1ccc(CNC(=O)[C@@H]2C[C@@H](O)CN2C(=O)[C@@H](NC(=O)COCCCOCCCCOc2ccc(N3C(=S)N(c4ccc(C#N)c(C(F)(F)F)c4)C(=O)C3(C)C)cc2)C(C)C)cc1` [Example 29, (2S,4R)-1-[(2S)-2-(2-{3-[4-(4-{3-[4-cyano-3-(trifluoromethyl)phenyl]-5,5-dimethyl-4-oxo-2-sulfanylideneimidazolidin-1-yl}phenoxy)butoxy]propoxy}acetamido)-3-methylbutanoyl]-4-hydroxy-N-{[4-(4-methyl-1,3-thiazol-5-yl)phenyl]methyl}pyrrolidine-2-carboxamide] was tested, and the Dmax (Androgen Receptor [1]; VCaP, read-out: VCaP Dmax (%)) was 51 to 70%, the DC50 (Androgen Receptor [2]) was 51 to 500 nM and the Dmax (Androgen Receptor [2]) was 51 to 70%.
In the case of `Cc1ncsc1-c1ccc(CNC(=O)[C@@H]2C[C@@H](O)CN2C(=O)[C@@H](NC(=O)COCCCOCCCCOc2ccc(N3C(=S)N(c4cnc(C#N)c(C(F)(F)F)c4)C(=O)C3(C)C)cc2)C(C)(C)C)cc1` [Example 30, (2S,4R)-1-[(2S)-2-(2-{3-[4-(4-{3-[6-cyano-5-(trifluoromethyl)pyridin-3-yl]-5,5-dimethyl-4-oxo-2-sulfanylideneimidazolidin-1-yl}phenoxy)butoxy]propoxy}acetamido)-3,3-dimethylbutanoyl]-4-hydroxy-N-{[4-(4-methyl-1,3-thiazol-5-yl)phenyl]methyl}pyrrolidine-2-carboxamide], the Dmax (Androgen Receptor [1]; [4]) is reported as greater than 71%, the DC50 (Androgen Receptor [1]; [5]) is reported as less than 50 nM and the DC50 (Androgen Receptor [2]) is reported as less than 50 nM. For the same compound, the Dmax (Androgen Receptor [2]) was greater than 71%.
Work on `Cc1ncsc1-c1ccc(CNC(=O)[C@@H]2C[C@@H](O)CN2C(=O)[C@@H](NC(=O)COCCCOCCCCOc2ccc(N3C(=S)N(c4ccc(C#N)c(Cl)c4)C(=O)C3(C)C)cc2)C(C)(C)C)cc1` [Example 31, (2S,4R)-1-[(2S)-2-{2-[3-(4-{4-[3-(3-chloro-4-cyanophenyl)-5,5-dimethyl-4-oxo-2-sulfanylideneimidazolidin-1-yl]phenoxy}butoxy)propoxy]acetamido}-3,3-dimethylbutanoyl]-4-hydroxy-N-{[4-(4-methyl-1,3-thiazol-5-yl)phenyl]methyl}pyrrolidine-2-carboxamide] yielded a Dmax (Androgen Receptor [1]; VCaP, read-out: VCaP Dmax (%)) greater than 71%, a DC50 (Androgen Receptor [1]; [3]) of less than 50 nM and a DC50 (Androgen Receptor [2]) of less than 50 nM. For the same compound, the Dmax (Androgen Receptor [2]) was greater than 71%.
`COc1cc(N2C(=O)C(C)(C)N(c3ccc(OCCCCOCCCOCC(=O)N[C@H](C(=O)N4C[C@H](O)C[C@H]4C(=O)NCc4ccc(-c5scnc5C)cc4)C(C)(C)C)cc3)C2=S)ccc1C#N` [Example 32, (2S,4R)-1-[(2S)-2-{2-[3-(4-{4-[3-(4-cyano-3-methoxyphenyl)-5,5-dimethyl-4-oxo-2-sulfanylideneimidazolidin-1-yl]phenoxy}butoxy)propoxy]acetamido}-3,3-dimethylbutanoyl]-4-hydroxy-N-{[4-(4-methyl-1,3-thiazol-5-yl)phenyl]methyl}pyrrolidine-2-carboxamide] showed a Dmax (Androgen Receptor [1]; [4]) of 51 to 70%, a DC50 (Androgen Receptor [1]; [5]) of less than 50 nM and a DC50 (Androgen Receptor [2]) of less than 50 nM. For the same compound, the Dmax (Androgen Receptor [2]) was greater than 71%.
Work on `Cc1ncsc1-c1ccc(CNC(=O)[C@@H]2C[C@@H](O)CN2C(=O)[C@@H](NC(=O)COCCCCOCCCOc2ccc(N3C(=S)N(c4ccc(C#N)c(C(F)(F)F)c4)C(=O)C3(C)C)cc2)C(C)(C)C)cc1` [Example 52, (2S,4R)-1-[(2S)-2-(2-{4-[3-(4-{3-[4-cyano-3-(trifluoromethyl)phenyl]-5,5-dimethyl-4-oxo-2-sulfanylideneimidazolidin-1-yl}phenoxy)propoxy]butoxy}acetamido)-3,3-dimethylbutanoyl]-4-hydroxy-N-{[4-(4-methyl-1,3-thiazol-5-yl)phenyl]methyl}pyrrolidine-2-carboxamide] yielded a Dmax (Androgen Receptor [1]; VCaP, read-out: VCaP Dmax (%)) greater than 71%, a DC50 (Androgen Receptor [1]; [3]) of less than 50 nM and a DC50 (Androgen Receptor [2]) of less than 50 nM. The Dmax (Androgen Receptor [2]) was greater than 71%.
In the case of `Cc1ncsc1-c1ccc(CNC(=O)[C@@H]2C[C@@H](O)CN2C(=O)[C@@H](NC(=O)COCC#CC#CCOc2ccc(N3C(=S)N(c4ccc(C#N)c(C(F)(F)F)c4)C(=O)C3(C)C)cc2)C(C)(C)C)cc1` [Example 54, (2S,4R)-1-((S)-2-(2-(6-(4-(3-(4-cyano-3-(trifluoromethyl)phenyl)-5,5-dimethyl-4-oxo-2-thioxoimidazolidin-1-yl)phenoxy)hexa-2,4-diynyloxy)acetamido)-3,3-dimethylbutanoyl)-4-hydroxy-N-(4-(4-methylthiazol-5-yl)benzyl)pyrrolidine-2-carboxamide], the Dmax (Androgen Receptor [1]; VCaP, read-out: VCaP Dmax (%)) is reported as greater than 71%, the DC50 (Androgen Receptor [2]) is reported as greater than 501 nM and the Dmax (Androgen Receptor [2]) is reported as less than 25%.
`Cc1ncsc1-c1ccc(CNC(=O)[C@@H]2C[C@@H](O)CN2C(=O)[C@@H](NC(=O)CCOCC#CC#CCOc2ccc(N3C(=S)N(c4ccc(C#N)c(C(F)(F)F)c4)C(=O)C3(C)C)cc2)C(C)(C)C)cc1` [Example 55, (2S,4R)-1-[(2S)-2-(3-{[6-(4-{3-[4-cyano-3-(trifluoromethyl)phenyl]-5,5-dimethyl-4-oxo-2-sulfanylideneimidazolidin-1-yl}phenoxy)hexa-2,4-diyn-1-yl]oxy}propanamido)-3,3-dimethylbutanoyl]-4-hydroxy-N-{[4-(4-methyl-1,3-thiazol-5-yl)phenyl]methyl}pyrrolidine-2-carboxamide] showed a Dmax (Androgen Receptor [1]; VCaP, read-out: VCaP Dmax (%)) of 51 to 70%, a DC50 (Androgen Receptor [2]) greater than 501 nM and a Dmax (Androgen Receptor [2]) of 26 to 50%.
